Source: article PMC7580997 (Journal of medicinal chemistry, 2019)

Columns and labels:
A549 cells = test: IncuCyte S3 Caspase-3/7 apoptosis assay, A549; type: cell-based; settings: nanomolar concentration
[1] = Solubility and chemical stability in aqueous buffer by 1H 1D NMR; type: physicochemical; settings: aqueous buffer pH = 7.5, T = 25 °C
SK-MEL-28 cells = test: IncuCyte S3 Caspase-3/7 apoptosis assay, SK-MEL-28; type: cell-based, human; settings: SK-MEL-28, co-treatment with TNFα, nanomolar concentration
Plasma stability = type: in vitro ADME; settings: mouse plasma 80% in PBS pH 7.4, 37 °C, 200 μM
HA-BIR3 of XIAP = HA-BIR3 of XIAP (Homo sapiens, UniProt P98170); test: Western blot; type: cell-based; settings: HEK293T, 10 μM, 6 h
BIR3 domain of cIAP1 = BIR3 domain of cIAP1 (Homo sapiens, UniProt Q13490); test: LC-MS of protein-compound covalent adduct, cIAP1-BIR3
BIR3 domain of cIAP1, sequence (Q13490 258-363 limits assumed): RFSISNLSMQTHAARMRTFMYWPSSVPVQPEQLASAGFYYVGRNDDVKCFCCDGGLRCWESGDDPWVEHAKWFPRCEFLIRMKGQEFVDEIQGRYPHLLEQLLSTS

HA-BIR3 of XIAP, sequence (P98170 253-347 limits assumed): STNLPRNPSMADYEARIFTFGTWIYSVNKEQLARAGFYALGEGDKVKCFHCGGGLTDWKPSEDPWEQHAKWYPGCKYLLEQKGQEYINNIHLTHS

SMILES | induction of apoptosis by co-treatment with TNFα (A549 cells) | solubility in aqueous buffer (soluble up to) [1] | induction of apoptosis by co-treatment with TNFα (SK-MEL-28 cells) | plasma stability t1/2 (Plasma stability) | stabilization of HA-BIR3 in cell (western blot band intensity) (HA-BIR3 of XIAP) | mass increase of cIAP1-BIR3 (covalent adduct) (BIR3 domain of cIAP1)
CN[C@@H](C)C(=O)N[C@H]1CN(C(=O)CC(C)C)CC[C@H]2CC[C@@H](C(=O)NC(c3ccccc3)c3ccccc3)N2C1=O [AT406] | Time- and dose-dependent apoptosis was restored | similar | Time- and dose-dependent apoptosis was restored | similar | stabilized the BIR3 domain | 
CN[C@@H](C)C(=O)N[C@@H](Cc1ccc(OS(=O)(=O)F)cc1)C(=O)N1CCC[C@H]1C(=O)N[C@@H]1CCc2c(F)cccc21 [Compound 1, 4-((S)-3-((S)-2-(((R)-4-fluoro-2,3-dihydro-1-H-inden-1-yl)carbamoyl)pyrrolidin-1yl)-2-((S)-2-(methylamino)propanamido)-3-oxopropyl)phenyl sulfurofluoridate] |  |  |  |  |  | no increase in mass
CN[C@@H](C)C(=O)N[C@H](C(=O)N1CCC[C@H]1c1nc(C(=O)c2ccc(F)cc2)cs1)C1CCCCC1 [LCL161] | Time- and dose-dependent apoptosis was restored | similar | Time- and dose-dependent apoptosis was restored | similar | stabilized the BIR3 domain | 
